From patent publication US7361690B2, “Compositions and methods for the treatment of urinary incontinence” (Gruenenthal GmbH, priority 2000, dated 2008)
Marks after values point to notes of the source that are not given here.

Columns and labels:
[1] = tested on: female Sprague-Dawley rats; test: Cystometry tests on conscious fresh rats; format: in vivo, rat; conditions: effect maximum, mean of 3 micturition cycles
Procedure: Cystometry investigations were carried out on fresh female Sprague-Dawley rats according to the method of Ishizuka et. al. ((1997), Naunyn-Schmiedeberg's Arch. Pharmacol. 355: 787-793). Three days after implantation of bladder and venous catheters the animals were investigated in the conscious state while freely moving. The bladder catheter was connected to a pressure gauge and an injection pump. The animals were placed in metabolic cages that enable the volume of urine to be measured. Physiological saline solution was infused (10 ml/hour) into the emptied bladder and the bladder pressure and volume of urine were continuously recorded. After a stabilization phase a 20-minute phase was recorded that was characterized by normal, reproducible micturition cycles. The following parameters among others were measured: • threshold pressure (TP), bladder pressure immediately before micturition, • bladder capacity (BC), residual volume after prior micturition plus volume of infused solution during the filling phase, • intercontraction interval (ICI), the time interval between consecutive micturition.
An increase in the threshold pressure (TP) indicates an important therapeutic effect in one of the medical conditions suitable for treatment with the method of the invention. Also, the intercontraction interval (ICI) is an important parameter for measuring the physiological effectiveness of a substance in the treatment of urinary incontinence, as is the bladder capacity (BC). In this connection, on account of the widely differing causes of the symptoms of these disease patterns it is not necessary to influence positively all three parameters in order for a medicament to be effective.
After recording three reproducible micturition cycles to provide a baseline value, the test substances 24 (1.0; 3.0; 5.0 mg/kg), 25 (1.5 mg/kg) and 26 (3.0 mg/kg) in a vehicle comprising 0.9% NaCl were applied intravenously and the effect on the cystometric parameters was recorded at 90 to 120 minutes. In the effect maximum the mean value of 3 micturition cycles was determined and recorded as a percentage change compared to the baseline value (Table 1).

[2] = tested on: narcotized ventilated rats; test: Cystometry investigations in narcotized fresh rats (suppression of rhythmic spontaneous bladder contractions); format: in vivo, rat; conditions: intravenous, cumulative, lowest dose at which contractions disappeared for the first time over a period of 10 minutes
Procedure: The cystometric investigation was carried out on fresh female rats according to the method of Kimura et al. (Kimura et al., 1996, Int. J. Urol. 3: 218-227). The abdomen of narcotized ventilated rats is opened and the ureter is ligated. The urine is drawn off from the kidneys. A catheter is inserted into the bladder and secured in place. […] The test substance is applied intravenously in a cumulative manner after stable starting values were reached. An effect on the bladder function is manifested by the suppression of the spontaneous contractions. The disappearance of the contractions over a period of 10 minutes serves as a parameter for their suppression.
With all the substances listed there was a measurable suppression of the spontaneous contractions in rats.

| Compound | BC Bladder Capacity, change compared to the baseline value ([1]; 3.0 mg/kg iv) | ICI Inter-Contraction Interval, change compared to the baseline value ([1]; 3.0 mg/kg iv) | TP Threshold Pressure, change compared to the baseline value ([1]; 3.0 mg/kg iv) | Mean Value of Lowest Dose for Contraction Suppression [2] | also measured |
| --- | --- | --- | --- | --- | --- |
| COc1cccc([C@@]2(O)C[C@H](O)CC[C@@H]2CN(C)C)c1.Cl (racemic) [Compound 24, (1RS,3RS,6RS)-6-dimethylaminomethyl-1-(3-methoxyphenyl)-cyclohexane-1,3-diol, hydrochloride] | −16.0%* | −16%* | +94.0%** |  | BC Bladder Capacity, change compared to the baseline value ([1]; 1.0 mg/kg iv): −8.0%; ICI Inter-Contraction Interval, change compared to the baseline value ([1]; 1.0 mg/kg iv): −15%**; TP Threshold Pressure, change compared to the baseline value ([1]; 1.0 mg/kg iv): +44.0%***; BC Bladder Capacity, change compared to the baseline value ([1]; 5.0 mg/kg iv): −26.0%; ICI Inter-Contraction Interval, change compared to the baseline value ([1]; 5.0 mg/kg iv): −21.2%; TP Threshold Pressure, change compared to the baseline value ([1]; 5.0 mg/kg iv): +69.0%* |
| CN(C)C[C@H]1CC[C@@H](O)C[C@]1(O)c1cccc(O)c1.Cl (racemic) [Compound 26, (1RS,3RS,6RS)-6-dimethylaminomethyl-1-(3-hydroxyphenyl)-cyclohexane-1,3-diol, hydrochloride] | +29.0%*** | +27.0%* | +86.0%*** |  |  |
| COc1cccc([C@@]2(O)C[C@@H](O)CC[C@@H]2CN(C)C)c1.Cl (racemic) [Compound 27, (1RS,3SR,6RS)-6-dimethylaminomethyl-1-(3-methoxyphenyl)-cyclohexane-1,3-diol, hydrochloride] |  |  |  | 115 (n = 2) mg/kg |  |
| COc1cccc([C@@]2(O)C[C@H](O)CC[C@@H]2CN(C)C)c1.Cl [Compound 25, (+)-(1R,3R,6R)-6-dimethylaminomethyl-1-(3-methoxyphenyl)-cyclohexane-1,3-diol, hydrochloride] |  |  |  |  | BC Bladder Capacity, change compared to the baseline value ([1]; 1.5 mg/kg iv): −14.0%*; ICI Inter-Contraction Interval, change compared to the baseline value ([1]; 1.5 mg/kg iv): −9.0%; TP Threshold Pressure, change compared to the baseline value ([1]; 1.5 mg/kg iv): +62.0%* |
| C[C@H]1CC[C@H](CN(C)C)[C@@](O)(c2cccc(O)c2)C1.Cl [Compound 28, (+)-(1R,2R,5S)-3-(2-dimethylaminomethyl-1-hydroxy-5-methylcyclohexyl)-phenol, hydrochloride] |  |  |  | 16.7 (n = 3) mg/kg |  |
| (1RS,2RS,5RS)-3-(2-dimethylaminomethyl-1-hydroxy-5-trifluoromethylcyclohexyl)-phenol,hydrochloride [Compound 29] |  |  |  | 23.3 (n = 3) mg/kg |  |
